# Starred links: 1 amine or outer side, 2 acyl side, 3 side chain; linkers in the order of their positions; H or OH if unused. Positions of bridges follow the written chain, without caps; N, C: chain ends. Non-standard residues stand in square brackets, D forms with d. Residues, ends and D or L forms follow the SMILES beside them. Chains are numbered I, II in the order given. Actinocin(9to1) = Cc1c2oc3c(C)ccc(C(=O)[*:1])c3nc-2c(C(=O)[*:2])c(N)c1=O; NMeV = CN[C@H](C(=O)O)C(C)C; Sar = CNCC(=O)O
# Legend:
# [1] = tested on: IGFIR-IC transfected 293T cells; assay: IGFIR-IC-induced cell death (paraptosis) in transfected 293T cells, trypan blue exclusion; type: cell-based; design: inhibition of IGFIR-IC-induced cell death: dose or concentration left out as unconfirmed; conditions: for IGFIR-induced cell death following drug treatment: drug added 8.5 hrs after transfection, removed after 12 hrs, floating dead cells counted 24 hrs later with trypan blue
# Method: Transient transfections used Lipofect-Amine (GIBCO, BRL, Rockville, Md.) according to the manufacturer's instructions. Briefly, 1×10^6 293T cells were seeded in 6 cm dishes, and transfected the next day using a ratio of DNA:Lipofect-Amine of 1 μg:5 μl.
# (§1) Following expression of the IGIFR-IC constructs, the cell cultures were assayed for cell death. Cell death was assessed by trypan blue exclusion. Floating cells were collected at the indicated times after transfection, by centrifugation for 10 minutes at 1500 rpm. The cell pellet was subsequently resuspended in 50 μl of PBS, to which 50 μl of trypan blue was added. Dead cells were counted by 4 independent hemocytometer counts.
# Briefly, caspase inhibitor BAF was added to pIGFIR-IC transfected 293T cells at a concentration of […]. In addition, 293T cells were cotransfected with […] of pIGFIR-IC and […] of either pcDNA3 or pxiap or pBcl-xL. […] BAF and zVAD.fmk were obtained from Enzyme System Products (Livermore, Calif.).
# To assess IGFIR-induced cell death following treatment with Actinomycin D and cycloheximide, both drugs were obtained form Sigma and added to IGFIR-IC transfected 293T cells. Briefly, 293T cells were transfected as described above and 8.5 hours after the beginning of transfection the drugs were added at the indicated concentrations. The drugs were subsequently removed after 12 hours and the cells were fed with fresh medium. Floating cells were collected 24 hrs after the removal of the drugs and dead cells were counted in the presence of trypan blue.
# To assess whether caspase-9 has a functional role in IGFIR-induced cell death 293T cells were transfected with 2 μg of DNA consisting of either pcDNA3, 0.5 μg pIGFIR-IC+1.5 μg pcDNA3 (Invitrogen, Carlsbad, Calif.), or 0.5 μg pIGFIR-IC+1.5 μg dominant negative caspase-9 (pC9DN) or dominant negative caspase-7 (pC7DN) expression constructs. 48 hours after transfection, dead cells were counted.
# Apoptosis = conditions: Table 1, Comparison of Apoptosis, Necrosis and Paraptosis; cited from earlier work
# [2] = tested on: 293T cells transfected with pro-caspase expression constructs; assay: Internucleosomal DNA fragmentation of 293T cells transfected with pro-caspase expression constructs; type: cell-based; conditions: 50 μM BAF
# Method: (§2) In panel (A) 293T cells were transfected with the indicated pcDNA3-based caspase zymogen expression constructs. The general caspase inhibitor BAF was added at 50 μM final concentration. Cell death was assayed 48 hours after transfection. […] Asterisks indicate a highly significant difference from the control as determined by one-way ANOVA analysis (F=34.624, P<0.0001), P<0.0001 for pC9, P=0.0002 for pC7, and P=0.0001 for pC9+BAF (Bonferroni/Dunn post-hoc test). Error bars represent the SEM from three independent experiments. […] Cells were photographed 24 hours after transfection. […] BAF. […] Cells were stained as described in FIG. 2C. Panel (E) Electron micrograph of 293T cells transfected with an expression construct for pro-caspase-9 in the presence of. zVAD.fmk (40 μM). Morphology similar to IGFIR-IC-induced cell death was observed, including cytoplasmic vacuolation and the absence of chromatin condensation, nuclear fragmentation, and apoptotic body formation. Original magnification: 6000×.
# Since one of the defining features of apoptotic cell death is the fragmentation of chromatin, genome integrity was assayed by agarose gel electrophoresis. Oligonucleosomal DNA fragmentation was assessed by extraction of soluble DNA from 3×10^6 transfected cells as by Frisch and Francis, Journal of Cell Biology 124:619-626 (1994), which is incorporated herein by reference.
# [3] = tested on: 293T cells transfected with caspase-7 zymogen expression construct; assay: caspase-7 induced cell death in transfected 293T cells; type: cell-based; conditions: 50 μM final concentration, 48 hours after transfection
# Method: as §2
# as §1, with “The cell pellet was subsequently resuspended in 50 μl of PBS, to which 50 μl of trypan blue was added.” left out, “counts. […]” for “counts.”
# [4] = tested on: 293T cells transfected with pro-caspase-9 (pC9); assay: caspase-9 induced cell death in transfected 293T cells; type: cell-based
# Method: as §2
# as §1, with “The cell pellet was subsequently resuspended in 50 μl of PBS, to which 50 μl of trypan blue was added.” left out, “counts. […]” for “counts.”
smiles,measurement,setting,value
"Cc1c2oc3c(C)ccc(C(=O)N[C@@H]4C(=O)N[C@H](C(C)C)C(=O)N5CCC[C@H]5C(=O)N(C)CC(=O)N(C)[C@@H](C(C)C)C(=O)O[C@@H]4C)c3nc-2c(C(=O)N[C@@H]2C(=O)N[C@H](C(C)C)C(=O)N3CCC[C@H]3C(=O)N(C)CC(=O)N(C)[C@@H](C(C)C)C(=O)O[C@@H]2C)c(N)c1=O [Actinomycin D] (I: T[dV]P[Sar][NMeV] / II: T[dV]P[Sar][NMeV]; ester I:1-I:C, II:1-II:C; linker I:N-II:N via Actinocin(9to1))",IGFIR-induced cell death following drug treatment,[1],restored cell viability to control levels
same,Inhibition by: Apoptosis,Apoptosis,Sometimes
"COC(=O)C[C@H](NC(=O)OC(C)(C)C)C(=O)CF [BAF, t-butyloxycarbonyl-Asp (O-methyl)-fluoromethyl ketone]",inhibition of IGFIR-IC-induced cell death,[1]; 293T cells,Neither the administration of the caspase inhibitor BAF at 50 mM (A) nor the cotransfection of xiap (B) or Bcl-xL (C) were effective
same,Internucleosomal DNA fragmentation,[2],completely inhibited
same,inhibition of caspase-7 induced cell death,[3],completely
same,"morphology of pro-caspase-9 transfected cells, light microscopy","[4]; 50 μM BAF, 24 hours after transfection",suppressed the apoptotic phenotype
same,inhibition of caspase-9 induced cell death,"[4]; 50 μM final concentration, 48 hours after transfection",30%
"C[C@@H]1C[C@@H]([C@H](O)CC2CC(=O)NC(=O)C2)C(=O)[C@@H](C)C1 [Cycloheximide, cycloheximide]",Inhibition by: Paraptosis,"[1]; Table 1, 293T cell death induced by IGFIR-IC",0
same,IGFIR-induced cell death following drug treatment,[1],dose-dependent block
same,Inhibition by: Apoptosis,Apoptosis,Sometimes
CC[C@H]1/C=C/C=C/C[C@@H](C)[C@H](O)[C@@](C)(O)C(=O)[C@@H](C)[C@H](O)[C@@H](C)C(=O)[C@@H](C)[C@H](O)[C@@H](C)/C=C/C(=O)O[C@@H]2[C@H](C)[C@H](CC1)O[C@]1(CC[C@H](C)[C@H](C[C@@H](C)O)O1)[C@H]2C [oligomycin],block of IGFIR-induced cell death phenotype,[1]; 100 ng/ml,blocked the phenotype
